From ChEMBL document CHEMBL2073767, “Novel membrane transporter OCTN1 mediates multispecific, bidirectional, and pH-dependent transport of organic cations” (J Pharmacol Exp Ther, 1999)

Experiments:
[1] = biological target: T1, Solute carrier family 22 member 4 (Homo sapiens, UniProt Q9H015); assay: TP_TRANSPORTER: inhibition of TEA uptake (TEA: 60 uM, Lysine: 5000 uM) in Xenopus laevis oocytes; type: functional, cell-based; conditions: oocyte
T1 sequence (Q9H015 whole entry): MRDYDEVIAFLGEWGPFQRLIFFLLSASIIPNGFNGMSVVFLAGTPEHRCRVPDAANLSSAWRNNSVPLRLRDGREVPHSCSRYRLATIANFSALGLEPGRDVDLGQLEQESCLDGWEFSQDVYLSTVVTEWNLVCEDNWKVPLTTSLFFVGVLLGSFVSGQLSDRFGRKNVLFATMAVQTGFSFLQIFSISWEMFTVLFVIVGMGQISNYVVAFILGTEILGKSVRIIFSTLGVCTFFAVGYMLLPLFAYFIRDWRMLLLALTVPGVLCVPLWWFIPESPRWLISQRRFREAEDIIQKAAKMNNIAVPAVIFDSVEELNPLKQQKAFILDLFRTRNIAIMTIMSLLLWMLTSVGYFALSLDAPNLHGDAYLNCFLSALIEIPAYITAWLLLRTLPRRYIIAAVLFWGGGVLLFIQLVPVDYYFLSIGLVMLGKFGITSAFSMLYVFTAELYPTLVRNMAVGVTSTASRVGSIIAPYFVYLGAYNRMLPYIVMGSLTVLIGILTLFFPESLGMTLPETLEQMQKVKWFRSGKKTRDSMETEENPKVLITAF

[2] = biological target: T1, Solute carrier family 22 member 4; assay: TP_TRANSPORTER: inhibition of TEA uptake (TEA: 60 uM, Arginine: 5000 uM) in OCTN1-expressing HEK293 cells; type: functional, cell-based; conditions: hek293, 5000 µM
[3] = biological target: T1, Solute carrier family 22 member 4; assay: in vitro; conditions: xenopus laevis, Xenopus laevis oocytes, probe TEA
[4] = biological target: T1, Solute carrier family 22 member 4; assay: TP_TRANSPORTER: inhibition of TEA uptake (TEA: 60 uM, PAH: 5000 uM) in Xenopus laevis oocytes; type: functional, cell-based; conditions: oocyte
[5] = biological target: T1, Solute carrier family 22 member 4; assay: TP_TRANSPORTER: uptake in Xenopus laevis oocytes; type: functional, cell-based; conditions: oocyte
[6] = biological target: T1, Solute carrier family 22 member 4; assay: TP_TRANSPORTER: inhibition of TEA uptake (TEA: 60 uM, Verapamil: 1000 uM) in Xenopus laevis oocytes; type: functional, cell-based, Oocyte; design: scale not given: the % may be the effect or the level left; conditions: probe TEA, read-out: Activity
[7] = biological target: T1, Solute carrier family 22 member 4; assay: TP_TRANSPORTER: inhibition of TEA uptake (TEA: 60 uM, Quinine: 1000 uM) in Xenopus laevis oocytes; type: functional, cell-based; design: scale not given: the % may be the effect or the level left; conditions: oocyte
[8] = biological target: T1, Solute carrier family 22 member 4; assay: TP_TRANSPORTER: inhibition of TEA uptake (TEA: 60 uM, PCG: 5000 uM) in Xenopus laevis oocytes; type: functional, cell-based; conditions: oocyte
[9] = biological target: T1, Solute carrier family 22 member 4; assay: TP_TRANSPORTER: inhibition of TEA uptake (TEA: 60 uM, Quinidine: 1000 uM) in Xenopus laevis oocytes; type: functional, cell-based, Oocyte; design: scale not given: the % may be the effect or the level left; conditions: probe TEA, read-out: Activity
[10] = biological target: T1, Solute carrier family 22 member 4; assay: TP_TRANSPORTER: inhibition of TEA uptake (TEA: 60 uM, Levofloxacin: 1000 uM) in Xenopus laevis oocytes; type: functional, cell-based; design: scale not given: the % may be the effect or the level left; conditions: oocyte
[11] = biological target: T1, Solute carrier family 22 member 4; assay: in vitro; conditions: xenopus laevis, Xenopus laevis oocytes, probe TEA; remark: listed apart in the source
Description: TP_TRANSPORTER: inhibition of TEA uptake (TEA: 60 uM, Choline: 5000 uM) in Xenopus laevis oocytes

[12] = biological target: T1, Solute carrier family 22 member 4; assay: TP_TRANSPORTER: inhibition of TEA uptake (TEA: 60 uM, Procainamide: 1000 uM) in Xenopus laevis oocytes; type: functional, cell-based, Oocyte; design: scale not given: the % may be the effect or the level left; conditions: probe TEA, read-out: Activity
[13] = biological target: T1, Solute carrier family 22 member 4; assay: TP_TRANSPORTER: inhibition of TEA uptake (TEA: 60 uM, OFLX: 1000 uM) in Xenopus laevis oocytes; type: functional, cell-based, Oocyte; design: scale not given: the % may be the effect or the level left; conditions: probe TEA, read-out: Activity
[14] = biological target: T1, Solute carrier family 22 member 4; assay: TP_TRANSPORTER: inhibition of TEA uptake (TEA: 60 uM, D-Carnitine: 1000 uM) in Xenopus laevis oocytes; type: functional, cell-based, Oocyte; design: scale not given: the % may be the effect or the level left; conditions: probe TEA, read-out: Activity
[15] = biological target: T1, Solute carrier family 22 member 4; assay: TP_TRANSPORTER: inhibition of TEA uptake (TEA: 60 uM, L-Carnitine: 1000 uM) in Xenopus laevis oocytes; type: functional, cell-based, Oocyte; design: scale not given: the % may be the effect or the level left; conditions: probe TEA, read-out: Activity
[16] = biological target: T1, Solute carrier family 22 member 4; assay: TP_TRANSPORTER: inhibition of TEA uptake (TEA: 60 uM, Spermidine: 5000 uM) in Xenopus laevis oocytes; type: functional, cell-based; conditions: oocyte
[17] = biological target: T1, Solute carrier family 22 member 4; assay: TP_TRANSPORTER: inhibition of TEA uptake (TEA: 60 uM, Guanidine: 5000 uM) in Xenopus laevis oocytes; type: functional, cell-based, Oocyte; design: scale not given: the % may be the effect or the level left; conditions: probe TEA, read-out: Activity
[18] = biological target: T1, Solute carrier family 22 member 4; assay: TP_TRANSPORTER: inhibition of TEA uptake (TEA: 60 uM, NMN: 5000 uM) in Xenopus laevis oocytes; type: functional, cell-based; conditions: oocyte
[19] = biological target: T1, Solute carrier family 22 member 4; assay: TP_TRANSPORTER: inhibition of TEA uptake (TEA: 60 uM, CER: 1000 uM) in Xenopus laevis oocytes; type: functional, cell-based, Oocyte; design: scale not given: the % may be the effect or the level left; conditions: probe TEA, read-out: Activity
[20] = biological target: T1, Solute carrier family 22 member 4; assay: in vitro; conditions: xenopus laevis, Xenopus laevis oocytes, probe TEA; remark: listed apart in the source
Description: TP_TRANSPORTER: inhibition of TEA uptake (TEA: 60 uM, Nicotine: 1000 uM) in Xenopus laevis oocytes

[21] = biological target: T1, Solute carrier family 22 member 4; assay: TP_TRANSPORTER: inhibition of TEA uptake (TEA: 60 uM, Pyrilamine: 1000 uM) in Xenopus laevis oocytes; type: functional, cell-based, Oocyte; design: scale not given: the % may be the effect or the level left; conditions: probe TEA, read-out: Activity
[22] = substrate: CC[N+](CC)(CC)CC; assay: cells, lysate or membranes named

## NCCCC[C@H](N)C(=O)O [LYSINE]
[1]
  Activity: is not an inhibitor [-]

## N=C(N)NCCC[C@H](N)C(=O)O [ARGININE]
[2]
  Activity: is not an inhibitor [-]

## Clc1cccc(Cl)c1N=C1NCCN1 [CLONIDINE]
[3]
  activity at 1000 µM: 70.9%

## Nc1ccc(C(=O)NCC(=O)O)cc1 [AMINOHIPPURIC ACID]
[4]
  Activity: is not an inhibitor [-]

## COc1ccc(CCN(C)CCCC(C#N)(c2ccc(OC)c(OC)c2)C(C)C)cc1OC (stereo unspecified)
[5]
  Activity: substrate [+]
[6]
  activity at 1000 µM: 8.8%

## C=C[C@H]1C[N@@]2CC[C@H]1C[C@H]2[C@H](O)c1ccnc2ccc(OC)cc12 [QUININE]
[7]
  Activity: 24.6%

## CC1(C)S[C@@H]2[C@H](NC(=O)Cc3ccccc3)C(=O)N2[C@H]1C(=O)O [PENICILLIN G]
[5]
  Activity: is not a substrate [-]
[8]
  Activity: is not an inhibitor [-]

## C=C[C@H]1C[N@@]2CC[C@H]1C[C@@H]2[C@@H](O)c1ccnc2ccc(OC)cc12 [QUINIDINE]
[9]
  activity at 1000 µM: 15.2%
[5]
  Activity: substrate [+]

## C[C@H]1COc2c(N3CCN(C)CC3)c(F)cc3c(=O)c(C(=O)O)cn1c23.C[C@H]1COc2c(N3CCN(C)CC3)c(F)cc3c(=O)c(C(=O)O)cn1c23.O [LEVOFLOXACIN]
[10]
  Activity: 63.6%

## C[N+](C)(C)CCO [CHOLINE]
[11]
  activity at 5000 µM: 73.2%

## CCN(CC)CCNC(=O)c1ccc(N)cc1 [PROCAINAMIDE]
[12]
  activity at 1000 µM: 15.6%

## CC1COc2c(N3CCN(C)CC3)c(F)cc3c(=O)c(C(=O)O)cn1c23 (stereo unspecified) [OFLOXACIN]
[13]
  activity at 1000 µM: 61.4%

## C[N+](C)(C)C[C@@H](O)CC(=O)[O-] [D-CARNITINE]
[14]
  activity at 1000 µM: 53.9%

## C[N+](C)(C)CC(O)CC(=O)[O-] (stereo unspecified) [CARNITINE]
[5]
  Activity: substrate [+]
[15]
  activity at 1000 µM: 32.5%

## NCCCCNCCCN [SPERMIDINE]
[16]
  Activity: is not an inhibitor [-]

## N=C(N)N [GUANIDINE]
[17]
  activity at 5000 µM: 89.6%

## CNC(=O)c1cccnc1 [NICOTINYL METHYLAMIDE]
[18]
  Activity: is not an inhibitor [-]

## O=C(Cc1cccs1)N[C@@H]1C(=O)N2C(C(=O)[O-])=C(C[n+]3ccccc3)CS[C@H]12 [CEPHALORIDINE]
[19]
  activity at 1000 µM: 35.7%

## CN1CCC[C@H]1c1cccnc1 [NICOTINE]
[20]
  activity at 1000 µM: 71.6%

## COc1ccc(CN(CCN(C)C)c2ccccn2)cc1 [PYRILAMINE]
[21]
  activity at 1000 µM: 0%
[5]
  Activity: substrate [+]

B1: Solute carrier family 22 member 4 (Homo sapiens) (protein)
chain: T1 sequence (Q9H015 whole entry)
[22]
  Km: 436 µM
